In patent US20220323391A1, “COMBINATION OF A CHEMOTHERAPEUTIC AGENT AND ALPHA-LACTOGLUBULIN-OLEIC ACID COMPLEX FOR CANCER THERAPY” (HAMLET PHARMA AB, priority 2019, published 2022):
“Also recorded” adds a separate entry of the source.

Test system: MB49 mouse bladder carcinoma cells
Assay: murine MB49 bladder cancer model, intravesical treatment
Type: in vivo
Details: for Tumor growth / tumor progression (bladder weight, bladder size, tumor size) compared to sham treated mice: chemotherapeutic agent alone, 25 μg intravesical, days 3, 5, 7, 9 and 11; for Tumor growth / tumor recurrence at long-term follow up: single agent (alpha1-oleate 1.7 mM, or MMC or Epirubicin 25 μg), after 4 weeks
Description: MB49 (RRID:CVCL_7076) cells were provided by Sara Mangsbo, Uppsala University, Sweden. […] C57BL/6 female mice were bred at the Department of Laboratory Medicine, Lund University and used at ages from 7 to 12 weeks. […] On day 0, the bladder was emptied and preconditioned by intravesical instillation of 100 μl of poly-L-lysine solution (0.1 mg/ml) through a soft polyethylene catheter (Clay Adams) with an outer diameter of 0.61 mm. After 30 minutes, MB49 mouse bladder carcinoma cells (2×10^5 cells in 50 μl media) were instilled. On days 3, 5, 7, 9 and 11, mice were randomly assigned and instilled to the alpha1-oleate (1.7 mM or 8.5 mM), chemotherapeutic drugs (MMC 25 μg, epirubicin 25 μg), combination of alpha1-oleate with chemotherapeutic agent or sham PBS treatment group. The catheter was left in place for about one minute, but as the mice remained under anesthesia, the time to voiding (dwelling time) of the substance was 2-3 hours. Groups of 5-6 mice for each treatment and control were sacrificed at day 12. Follow up groups of 5-8 mice were sacrificed at week 4 and week 8. Bladders were imaged and processed for histology or RNA extraction. Two independent experiments were performed for each condition. All experiments were performed with mycoplasma-free cells.
Bladders were embedded in O.C.T. compound (VWR), and successive 5 μm sections were collected from the center of each bladder and placed on positively-charged microscope slides (Superfrost/Plus; Thermo Fisher Scientific). […] Images was captured using the AX10 microscope (Carl Zeiss). The tumor circumferences were measured for analysis of the tumor area using ImageJ software.
The effects of alpha1-oleate and Mitomycin C were investigated in the murine MB49 bladder cancer model (for study design see FIG. 19A). Bladder cancer was established by intra-vesical instillation of MB49 cells and treatment was initiated on day 3. The treatment group received alpha1-oleate (1.7 mM or 8.5 mM), MMC (0.1 mL, 25 ug/dose) or a combination of alpha1-oleate (1.7 mM or 8.5 mM) with MMC (0.1 mL, 25 ug/dose). Instillations were performed on days 3, 5, 7, 9 and 11 and sham treated mice received PBS. Bladders were harvested at sacrifice on day 12 and tumor development was quantified as bladder weight, bladder size, tumor size and pathology score (FIG. 21c-f).

SMILES	Therapeutic effect of Epirubicin alone relative to alpha1-oleate (Epirubicin 25 μg vs alpha1-oleate 1.7 mM, day 12, p=0.97)	Tumor growth / tumor progression (bladder weight, bladder size, tumor size) compared to sham treated mice (day 12)	Tumor growth / tumor recurrence at long-term follow up	Tumor growth / tumor progression (bladder weight, bladder size, tumor size) compared to sham treated mice (day 12, listed as MMC)	Tumor growth / tumor progression (bladder weight, bladder size, tumor size) compared to sham treated mice (day 12, listed as mitomycin)	Tumor growth / tumor recurrence at long-term follow up (listed as MMC)
COc1cccc2c1C(=O)c1c(O)c3c(c(O)c1C2=O)C[C@@](O)(C(=O)CO)C[C@@H]3O[C@H]1C[C@H](N)[C@@H](O)[C@H](C)O1 [Epirubicin]	comparable to that of alpha1-oleate	Tumor progression was delayed; also recorded: reduction in tumor size	Evidence of tumor recurrence; also recorded: showed an increase in tumor growth	–	–	–
CO[C@@]12[C@H](COC(N)=O)C3=C(C(=O)C(C)=C(N)C3=O)N1C[C@@H]1N[C@@H]12 [Mitomycin C]	–	Tumor progression was delayed	–	reduction in tumor size	attenuated to a similar extent	Evidence of tumor recurrence; also recorded: showed an increase in tumor growth
